pIC50: −log10 of the molar value.
Columns and labels:
CDK2/Cyclin E1 = CDK2/Cyclin E1 (Homo sapiens, UniProt P24941); assay: CDK2/Cyclin E1 Biochemical Assay (TR-FRET), 0.060 mM ATP; conditions: 0.15 μM Rb (Ser780)-biotin substrate, pH7.0, 60 min preincubation, 120 min reaction, room temperature
In short: (§1)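 IC50 was from a four-parameter logistic fit of the 665/620 nm TR-FRET ratio (Eu anti-pRb Ser780 mAb, streptavidin-XL665). Compound (0-10 μM) was preincubated 60 min with enzyme, then reacted 120 min at room temperature with 0.15 μM biotinylated Rb (Ser780) peptide. ATP was 0.015 mM for CDK1/Cyclin B1 and 0.060 mM for CDK2/Cyclin E1; buffer was HEPES pH7.0.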

CDK1/Cyclin B1 = CDK1/Cyclin B1 (Homo sapiens, UniProt P06493); assay: CDK1/Cyclin B1 Biochemical Assay (TR-FRET), 0.015 mM ATP; conditions: 0.15 μM Rb (Ser780)-biotin substrate, pH7.0, 60 min preincubation, 120 min reaction, room temperature
In short: as §1

Chain of CDK1/Cyclin B1 (P06493 whole entry): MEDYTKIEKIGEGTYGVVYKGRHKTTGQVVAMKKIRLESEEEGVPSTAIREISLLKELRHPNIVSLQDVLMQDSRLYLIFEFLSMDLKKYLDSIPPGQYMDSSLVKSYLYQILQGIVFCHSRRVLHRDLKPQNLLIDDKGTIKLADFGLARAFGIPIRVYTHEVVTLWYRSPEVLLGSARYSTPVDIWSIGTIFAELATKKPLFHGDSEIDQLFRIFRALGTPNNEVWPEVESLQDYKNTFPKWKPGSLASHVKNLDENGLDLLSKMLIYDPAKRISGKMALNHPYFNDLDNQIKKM
Chain of CDK1/Cyclin B1 (P14635 whole entry partner): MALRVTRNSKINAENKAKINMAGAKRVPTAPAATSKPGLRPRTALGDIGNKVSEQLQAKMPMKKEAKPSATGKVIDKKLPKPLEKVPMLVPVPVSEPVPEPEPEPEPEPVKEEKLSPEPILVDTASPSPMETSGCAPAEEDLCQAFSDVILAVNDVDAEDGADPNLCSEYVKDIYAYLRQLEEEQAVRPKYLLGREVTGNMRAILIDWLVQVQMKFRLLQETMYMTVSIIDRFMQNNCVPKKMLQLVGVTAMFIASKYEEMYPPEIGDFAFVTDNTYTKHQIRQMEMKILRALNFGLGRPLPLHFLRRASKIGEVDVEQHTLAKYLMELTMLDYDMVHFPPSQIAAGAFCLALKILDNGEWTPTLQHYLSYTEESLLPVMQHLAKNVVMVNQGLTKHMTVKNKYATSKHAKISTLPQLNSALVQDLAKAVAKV

pIC50 (CDK2/Cyclin E1)	pIC50 (CDK1/Cyclin B1)	SMILES
8.11	6.85	COCN1c2c(F)cc(Nc3cc([C@@H]4CC[C@H](OC(=O)NC(C)C)C4)[nH]n3)cc2CS1(=O)=O (relative stereo) [Example 282, cis-3-(3-((7-fluoro-1-(methoxymethyl)-2,2-dioxido-1,3-dihydrobenzo[c]isothiazol-5-yl)amino)-1H-pyrazol-5-yl)cyclopentyl isopropylcarbamate]
8.00	6.50	C[C@@H](CO)NC(=O)O[C@H]1CC[C@@H](c2cc(Nc3ccc4c(c3F)CNS4(=O)=O)n[nH]2)C1 (single isomer, unassigned) [Example 328a]
8.10	6.77	CCCNC(=O)O[C@H]1CC[C@@H](c2cc(Nc3ccc4c(c3F)CN(C3CC3)S4(=O)=O)n[nH]2)C1 (single isomer, unassigned) [Example 118b, cis-3-(3-((2-cyclopropyl-4-fluoro-1,1-dioxido-2,3-dihydrobenzo[d]isothiazol-5-yl)amino)-1H-pyrazol-5-yl)cyclopentyl propylcarbamate]
8.89	7.31	CC(CC(F)(F)F)NC(=O)O[C@H]1CC[C@@H](c2cc(Nc3ccc4c(c3F)CNS4(=O)=O)n[nH]2)C1 (relative stereo) [Example 165, cis-3-(3-((4-fluoro-1,1-dioxido-2,3-dihydrobenzo[d]isothiazol-5-yl)amino)-1H-pyrazol-5-yl)cyclopentyl(4,4,4-trifluorobutan-2-yl)carbamate]
8.06	6.91	CCCNC(=O)O[C@H]1CC[C@@H](c2cc(Nc3ccc4c(c3F)CN(C)S4(=O)=O)n[nH]2)C1 (single isomer, unassigned) [Example 122b, cis-3-(3-((4-fluoro-2-methyl-1,1-dioxido-2,3-dihydrobenzo[d]isothiazol-5-yl)amino)-1H-pyrazol-5-yl)cyclopentyl propylcarbamate]
8.16	6.52	CC(C)NC(=O)O[C@H]1CC[C@@H](c2cc(Nc3ccc4c(c3F)CN(C(C)C)S4(=O)=O)n[nH]2)C1 (relative stereo) [Example 65, cis-3-(3-((4-fluoro-2-isopropyl-1,1-dioxido-2,3-dihydrobenzo[d]isothiazol-5-yl)amino)-1H-pyrazol-5-yl)cyclopentyl isopropylcarbamate]
7.15	5.72	CC(C)NC(=O)O[C@H]1CC[C@@H](c2cc(Nc3ccc4c(c3F)C(C)(C)NS4(=O)=O)n[nH]2)C1 (relative stereo) [Example 55, cis-3-(3-((4-fluoro-3,3-dimethyl-1,1-dioxido-2,3-dihydrobenzo[d]isothiazol-5-yl)amino)-1H-pyrazol-5-yl)cyclopentyl isopropylcarbamate]
8.51	6.46	CCCNC(=O)O[C@H]1CC[C@@H](c2cc(Nc3ccc4c(c3F)CN(C3CC3)S4(=O)=O)n[nH]2)C1 (racemic) [Example 118, cis-3-(3-((2-cyclopropyl-4-fluoro-1,1-dioxido-2,3-dihydrobenzo[d]isothiazol-5-yl)amino)-1H-pyrazol-5-yl)cyclopentyl propylcarbamate]
8.39	6.85	CC(C)NC(=O)O[C@H]1CC[C@@H](c2cc(Nc3ccc4c(c3)CN(C)S4(=O)=O)n[nH]2)C1 (relative stereo) [Example 11, cis-3-(3-((2-methyl-1,1-dioxido-2,3-dihydrobenzo[d]isothiazol-5-yl)amino)-1H-pyrazol-5-yl)cyclopentyl isopropylcarbamate]
8.25	6.85	CCCNC(=O)O[C@H]1C[C@@H](c2cc(Nc3cc4c(cc3F)S(=O)(=O)NC4)n[nH]2)C1 [Example 50, cis-3-(3-((6-fluoro-1,1-dioxido-2,3-dihydrobenzo[d]isothiazol-5-yl)amino)-1H-pyrazol-5-yl)cyclobutyl propylcarbamate]
8.03	6.30	CC(C)NC(=O)O[C@H]1CO[C@@H](c2cc(Nc3ccc4c(c3F)CNS4(=O)=O)n[nH]2)C1 (relative stereo) [Example 378, 5-(3-((4-fluoro-1,1-dioxido-2,3-dihydrobenzo[d]isothiazol-5-yl)amino)-1H-pyrazol-5-yl)tetrahydrofuran-3-yl isopropylcarbamate]
7.92	5.91	CC(C)NC(=O)O[C@H]1CC[C@@H](c2cc(Nc3ccc4c(c3F)CN(CCO)S4(=O)=O)n[nH]2)C1 (single isomer, unassigned) [Example 125a, cis-3-(3-((4-fluoro-2-(2-hydroxyethyl)-1,1-dioxido-2,3-dihydrobenzo[d]isothiazol-5-yl)amino)-1H-pyrazol-5-yl)cyclopentyl isopropylcarbamate]
7.74	6.41	CC(C)NC(=O)O[C@H]1CC[C@@H](c2cc(Nc3ccc4c(c3)S(=O)(=O)NC4=O)n[nH]2)C1 (relative stereo) [Example 16, cis-3-(3-((1,1-dioxido-3-oxo-2,3-dihydrobenzo[d]isothiazol-6-yl)amino)-1H-pyrazol-5-yl)cyclopentyl isopropylcarbamate]
8.46	7.16	O=C(NCCC(F)(F)F)O[C@H]1CC[C@@H](c2cc(Nc3ccc4c(c3F)CNS4(=O)=O)n[nH]2)C1 (single isomer, unassigned) [Example 154b, cis-3-(3-((4-fluoro-1,1-dioxido-2,3-dihydrobenzo[d]isothiazol-5-yl)amino)-1H-pyrazol-5-yl)cyclopentyl(3,3,3-trifluoropropyl)carbamate]
8.59	6.73	[2H]C([2H])([2H])N1Cc2c(ccc(Nc3cc([C@@H]4CC[C@H](OC(=O)NC(C)C)C4)[nH]n3)c2F)S1(=O)=O (single isomer, unassigned) [Example 129b, cis-3-(3-((4-fluoro-2-(methyl-d3)-1,1-dioxido-2,3-dihydrobenzo[d]isothiazol-5-yl)amino)-1H-pyrazol-5-yl)cyclopentyl isopropylcarbamate]
8.08	6.40	CC(C)NC(=O)O[C@H]1CC[C@@H](c2cc(Nc3ccc4c(c3F)CS(=O)(=O)N4C3CC3)n[nH]2)C1 (single isomer, unassigned) [Example 275a, cis-3-(3-((1-cyclopropyl-4-fluoro-2,2-dioxido-1,3-dihydrobenzo[c]isothiazol-5-yl)amino)-1H-pyrazol-5-yl)cyclopentyl isopropylcarbamate]
8.02	6.22	CC(C)NC(=O)O[C@H]1CC[C@@H](c2cc(Nc3ccc4c(c3F)CN(CCC3CCOCC3)S4(=O)=O)n[nH]2)C1 (relative stereo) [Example 114, cis-3-(3-((4-fluoro-1,1-dioxido-2-(2-(tetrahydro-2H-pyran-4-yl)ethyl)-2,3-dihydrobenzo[d]isothiazol-5-yl)amino)-1H-pyrazol-5-yl)cyclopentyl isopropylcarbamate]
7.96	6.57	Cc1cc2c(cc1Nc1cc([C@@H]3CC[C@H](OC(=O)NC(C)C)C3)[nH]n1)CNS2(=O)=O (relative stereo) [Example 25, cis-3-(3-((6-methyl-1,1-dioxido-2,3-dihydrobenzo[d]isothiazol-5-yl)amino)-1H-pyrazol-5-yl)cyclopentyl isopropylcarbamate]
9.52	8.26	CC(C)NC(=O)O[C@H]1CC[C@@H](c2cc(Nc3cc(F)c4c(c3)S(=O)(=O)NC4)n[nH]2)C1 (relative stereo) [Example 179, cis-3-(3-((4-fluoro-1,1-dioxido-2,3-dihydrobenzo[d]isothiazol-6-yl)amino)-1H-pyrazol-5-yl)cyclopentyl isopropylcarbamate]
7.59	6.15	O=C(O[C@H]1CC[C@@H](c2cc(Nc3ccc4c(c3F)CS(=O)(=O)N4)n[nH]2)C1)N1CCOCC1 (relative stereo) [Example 415, cis-3-(3-((4-fluoro-2,2-dioxido-1,3-dihydrobenzo[c]isothiazol-5-yl)amino)-1H-pyrazol-5-yl)cyclopentyl morpholine-4-carboxylate]
8.47	6.70	CC(C)NC(=O)O[C@H]1CC[C@@H](c2cc(Nc3ccc4c(c3)CCS(=O)(=O)N4)n[nH]2)C1 (single isomer, unassigned) [Example 246a, cis-3-(3-((2,2-dioxido-3,4-dihydro-1H-benzo[c][1,2]thiazin-6-yl)amino)-1H-pyrazol-5-yl)cyclopentyl isopropylcarbamate]
8.96	7.35	COCC(C)(C)NC(=O)O[C@H]1CC[C@@H](c2cc(Nc3ccc4c(c3F)CS(=O)(=O)N4CCO)n[nH]2)C1 (relative stereo) [Example 394, cis-3-(3-((4-fluoro-1-(2-hydroxyethyl)-2,2-dioxido-1,3-dihydrobenzo[c]isothiazol-5-yl)amino)-1H-pyrazol-5-yl)cyclopentyl(1-methoxy-2-methylpropan-2-yl)carbamate]
8.89	7.31	CC[C@H](C)NC(=O)O[C@H]1CC[C@@H](c2cc(Nc3ccc4c(c3F)CS(=O)(=O)N4C3COC3)n[nH]2)C1 (racemic) [Example 261, cis-3-(3-((4-fluoro-1-(oxetan-3-yl)-2,2-dioxido-1,3-dihydrobenzo[c]isothiazol-5-yl)amino)-1H-pyrazol-5-yl)cyclopentyl((S)-sec-butyl)carbamate]
8.41	6.52	C[C@]1(O)CC[C@@H](NC(=O)O[C@H]2CC[C@@H](c3cc(Nc4ccc5c(c4F)CNS5(=O)=O)n[nH]3)C2)CC1 (relative stereo) [Example 144, cis-3-(3-((4-fluoro-1,1-dioxido-2,3-dihydrobenzo[d]isothiazol-5-yl)amino)-1H-pyrazol-5-yl)cyclopentyl((1s,4s)-4-hydroxy-4-methylcyclohexyl)carbamate]

— US20260297080A1, “BICYCLIC COMPOUNDS AS CDK INHIBITORS” (BeOne Medicines I GmbH, priority 2022, published 2026)
